Earlier results, collected in US20080249137A1, “PPAR active compounds” (priority 2005, published 2008).

Tests used:
PPARδ = target: T1, PPARδ (Homo sapiens, UniProt Q03181)
T1 sequence (Q03181 1-441): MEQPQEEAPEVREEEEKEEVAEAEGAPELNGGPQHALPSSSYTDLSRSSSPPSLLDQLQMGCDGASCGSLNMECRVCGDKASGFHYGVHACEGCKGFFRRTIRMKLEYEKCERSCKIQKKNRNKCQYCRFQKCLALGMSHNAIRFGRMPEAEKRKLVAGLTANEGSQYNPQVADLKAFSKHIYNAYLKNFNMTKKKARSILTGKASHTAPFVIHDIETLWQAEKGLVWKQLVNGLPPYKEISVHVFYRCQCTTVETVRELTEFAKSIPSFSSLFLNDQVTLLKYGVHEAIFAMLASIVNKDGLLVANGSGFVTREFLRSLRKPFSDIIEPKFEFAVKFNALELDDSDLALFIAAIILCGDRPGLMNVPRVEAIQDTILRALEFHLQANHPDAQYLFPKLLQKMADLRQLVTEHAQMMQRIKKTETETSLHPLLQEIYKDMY

murine PPARα = target: T2, murine PPARα (Mus musculus, UniProt P23204)
T2 sequence (P23204 1-468): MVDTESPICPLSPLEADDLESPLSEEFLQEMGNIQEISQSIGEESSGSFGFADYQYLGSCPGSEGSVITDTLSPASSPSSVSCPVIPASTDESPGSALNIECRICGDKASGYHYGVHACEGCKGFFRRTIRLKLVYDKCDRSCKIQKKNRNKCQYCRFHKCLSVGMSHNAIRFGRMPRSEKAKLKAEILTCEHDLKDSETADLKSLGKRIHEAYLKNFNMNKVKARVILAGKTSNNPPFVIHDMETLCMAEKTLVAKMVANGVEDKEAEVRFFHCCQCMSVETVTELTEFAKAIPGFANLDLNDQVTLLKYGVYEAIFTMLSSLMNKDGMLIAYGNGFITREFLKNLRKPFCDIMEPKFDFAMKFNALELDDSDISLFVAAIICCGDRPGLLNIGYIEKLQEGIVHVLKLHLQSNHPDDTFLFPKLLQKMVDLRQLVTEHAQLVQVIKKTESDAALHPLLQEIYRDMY

[1] = patients, large prospective trial

Row | agonist selectivity for PPARδ over PPARγ (PPARδ) | activity on murine PPARα (murine PPARα) | Compound | reduction in cardiovascular events or death [1]
1 | approximately 30 fold | inactive | CCCc1c(OCCCOc2ccc(OCC(=O)O)cc2)ccc(C(C)=O)c1O [Compound L-165041] | –
2 | – | – | Cc1ccc(C)c(OCCCC(C)(C)C(=O)O)c1 [gemfibrozil] | 22%
